Data: ChEMBL document CHEMBL5584322, “Nonpeptidic Irreversible Inhibitors of SARS-CoV-2 Main Protease with Potent Antiviral Activity” (J Med Chem, 2024)
The source made the active and inactive calls. The rule behind the calls is not given here.

What was measured:
[1] = biological target: T1, Replicase polyprotein 1ab (Severe acute respiratory syndrome coronavirus 2, UniProt P0DTD1); experiment: Inhibition of full-length SARS CoV-2 MPro expressed in Escherichia coli BL21(DE3) using Boc-Abu-Tle-Leu-Gln-AMC as substrate incubated for 10 mins by fluorescence based assay
[2] = biological target: Replicase polyprotein 1ab (Severe acute respiratory syndrome coronavirus 2) (UniProt P0DTD1); experiment: Inhibition of His-tagged recombinant SARS CoV-2 MPro expressed in Escherichia coli BL21(DE3) using Boc-Abu-Tle-Leu-Gln-AMC as substrate at 1 uM incubated for shorter period by fluorescence based assay relative to control
[3] = biological target: Replicase polyprotein 1ab (Severe acute respiratory syndrome coronavirus 2) (UniProt P0DTD1); experiment: Inhibition of His-tagged recombinant SARS CoV-2 MPro expressed in Escherichia coli BL21(DE3) using Boc-Abu-Tle-Leu-Gln-AMC as substrate at 1 uM incubated for >6 hrs by fluorescence based assay relative to control
[4] = Stability of compound in 1 mM GSH at 100 uM incubated for 1 hr by HPLC-ESI-MS analysis; format: ADME
[5] = system: SARS-CoV-2; experiment: microbe, parasite or virus in culture; details: Severe acute respiratory syndrome coronavirus 2, Calu-3
[6] = system: Calu-3; experiment: Cytotoxicity against human Calu-3 cells at 10 uM; format: toxicity, cell-based; details: calu-3, 10 µM
[7] = Stability of compound in 1 mM GSH assessed as compound remaining at 100 uM incubated for 1 hr by HPLC-ESI-MS analysis; format: ADME; details: 1 mM GSH solution, read-out: Stability
[8] = Stability of compound in 1 mM GSH at 10 uM incubated for 1 hr by HPLC-ESI-MS analysis; format: ADME
[9] = system: Severe acute respiratory syndrome-related coronavirus; experiment: Inhibition of SARS CoV-1 MPro using Boc-Abu-Tle-Leu-Gln-AMC as substrate incubated for 10 mins by fluorescence based assay
[10] = biological target: T1, Replicase polyprotein 1ab; experiment: Inhibition of SARS CoV-2 MPro
[11] = Stability of compound in 1 mM GSH assessed as compound remaining at 10 to 100 uM incubated for 1 hr by HPLC-ESI-MS analysis; format: ADME; details: 1 mM GSH solution, dose 10-100 µM, read-out: Stability

## O=C(Oc1cncc(Cl)c1)c1ccncc1
[1]
  IC50: 725 nM

## N#Cc1ccc(C(=O)Oc2cncc(Cl)c2)c(F)c1
[1]
  IC50: 47 nM

## Cc1cc(Cl)ccc1C(=O)Oc1cncc(Cl)c1
[1]
  IC50: 3400 nM

## O=C(Oc1cncc(Br)c1)c1ccc(Cl)cc1Cl
[1]
  IC50: 84.5 nM
[2]
  inhibition: 100%

## O=C(Oc1cncc(Br)c1)c1ccc(OCc2ccccc2)cc1F
[3]
  inhibition: 100%
[1]
  IC50: 232 nM

## O=C(Oc1cncc(Cl)c1)c1cccnc1
[1]
  IC50: 758 nM

## COc1ccc(C(=O)Oc2cncc(Br)c2)cc1
[4]
  Stability: Stable
[5]
  EC50: 1860 nM
[6]
  Activity: Non-Toxic
[3]
  inhibition: 100%
[1]
  IC50: 96.3 nM

## O=C(Oc1cncc(Cl)c1)c1cc2cc(Cl)ccc2[nH]1
[7]
  remaining at 1 h, 100 µM: > 70%
[8]
  Stability: Unstable

## O=C(Oc1cncc(Cl)c1)c1ccc(Cl)cc1F
[9]
  inhibition: inactive
[1]
  IC50: 45.7 nM
[2]
  inhibition: 100%

## CC(C)(C)[C@H](NC(=O)C(F)(F)F)C(=O)N1C[C@H]2[C@@H]([C@H]1C(=O)N[C@H](C#N)C[C@@H]1CCNC1=O)C2(C)C
[4]
  Stability: Stable
[8]
  Stability: Stable

## O=C(Oc1cncc(Cl)c1)c1cccc(-c2ccccc2)c1
[4]
  Stability: Stable
[8]
  Stability: Unstable
[1]
  IC50: 117 nM

## O=C(Oc1cncc(Cl)c1)c1cccc2[nH]ccc12
[7]
  remaining at 1 h, 100 µM: > 70%
[8]
  Stability: Stable

## O=C(Oc1cncc(Cl)c1)c1ccc(I)cc1
[8]
  Stability: Unstable
[9]
  inhibition: inactive
[1]
  IC50: 91.2 nM

## O=C(Oc1cncc(Br)c1)c1ccccc1Cl
[1]
  IC50: 39.2 nM

## COc1cccc(C(=O)Oc2cncc(Br)c2)c1OC
[3]
  inhibition: 100%
[1]
  IC50: 78.2 nM

## O=C(Oc1cncc(Cl)c1)c1ccc(I)cc1F
[9]
  inhibition: inactive
[1]
  IC50: 14.9 nM

## O=C(Oc1cncc(Cl)c1)c1cccs1
[10]
  Ki: 81.1 nM

## N=C(N)Nc1ccc(C(=O)Oc2cncc(Cl)c2)cc1
[1]
  IC50: 65.9 nM

## O=C(Oc1cncc(Cl)c1)c1ccccc1
[1]
  IC50: 40.4 nM

## COc1ccc(C(=O)Oc2cncc(Cl)c2)c(OC)c1
[4]
  Stability: Stable
[1]
  IC50: 1670 nM

## O=C(Oc1cncc(Cl)c1)c1ccc(OCc2ccccc2)cc1F
[4]
  Stability: Stable
[8]
  Stability: Unstable
[9]
  inhibition: inactive
[3]
  inhibition: 100%
[1]
  IC50: 322 nM

## COc1ccc(C(=O)Oc2cncc(Cl)c2)cc1
[4]
  Stability: Stable
[5]
  EC50: 10.8 nM
[9]
  inhibition: inactive
[6]
  Activity: Non-Toxic
[3]
  inhibition: 100%
[1]
  IC50: 164 nM
[11]
  remaining at 1 h, up to 100 µM: 50%

## COc1cc(F)ccc1C(=O)Oc1cncc(Cl)c1
[1]
  IC50: 249 nM

## O=C(Oc1cncc(Cl)c1)c1c(F)cccc1F
[9]
  inhibition: inactive
[1]
  IC50: 29.2 nM

## O=C(Oc1cncc(Cl)c1)c1ccc(Cl)c(Cl)c1
[9]
  inhibition: Active
[1]
  IC50: 96.4 nM

## O=C(Oc1cncc(Br)c1)c1ccc(Cl)cc1F
[1]
  IC50: 35.6 nM
[2]
  inhibition: 100%

## COc1ccc(F)c(C(=O)Oc2cncc(Cl)c2)c1F
[1]
  IC50: 30.3 nM

## COc1ccc(C(=O)Oc2cncc(Cl)c2)cc1Cl
[4]
  Stability: Stable
[8]
  Stability: Unstable
[1]
  IC50: 247 nM

## CNc1ccc(C(=O)Oc2cncc(Cl)c2)cc1
[4]
  Stability: Stable
[1]
  IC50: 3940 nM
[11]
  remaining at 1 h, up to 100 µM: 50%
